Laboratory results taken from article PMC9481151, “Discovery of new symmetrical and asymmetrical nitrile-containing 1,4-dihydropyridine derivatives as dual kinases and P-glycoprotein inhibitors: synthesis, in vitro assays, and in silico studies” (Journal of Enzyme Inhibition and Medicinal Chemistry, 2022).

Key:
T-47D = experiment: NCI single dose (10 µM) SRB screen; format: cell-based, human; conditions: breast cancer, 48 h
SNB-75 = experiment: NCI single dose (10 µM) SRB screen; format: cell-based, human; conditions: CNS cancer, 48 h
OVCAR-5 = experiment: NCI single dose (10 µM) SRB screen; format: cell-based, human; conditions: ovarian cancer, 48 h
MDA-MB-468 = experiment: NCI single dose (10 µM) SRB screen; format: cell-based, human; conditions: breast cancer, 48 h
NCI-H226 = experiment: NCI single dose (10 µM) SRB screen; format: cell-based, human; conditions: non-small cell lung cancer, 48 h
SF-268 = experiment: NCI single dose (10 µM) SRB screen; format: cell-based, human; conditions: CNS cancer, 48 h
NCI-H522 = experiment: NCI single dose (10 µM) SRB screen; format: cell-based, human; conditions: non-small cell lung cancer, 48 h
DU-145 = experiment: NCI single dose (10 µM) SRB screen; format: cell-based, human; conditions: prostate cancer, 48 h
HCT-15 = experiment: NCI single dose (10 µM) SRB screen; format: cell-based, human; conditions: colon cancer, 48 h
Candida albicans = experiment: Agar well diffusion method; conditions: relative to clotrimazole
SK-OV-3 = experiment: NCI single dose (10 µM) SRB screen; format: cell-based, human; conditions: ovarian cancer, 48 h
MALME-3M = experiment: NCI single dose (10 µM) SRB screen; format: cell-based, human; conditions: melanoma, 48 h
KM12 = experiment: NCI single dose (10 µM) SRB screen; format: cell-based, human; conditions: colon cancer, 48 h
HCC-2998 = experiment: NCI single dose (10 µM) SRB screen; format: cell-based, human; conditions: colon cancer, 48 h
A549/ATCC = experiment: NCI single dose (10 µM) SRB screen; format: cell-based, human; conditions: non-small cell lung cancer, 48 h
UO-31 = experiment: NCI single dose (10 µM) SRB screen; format: cell-based, human; conditions: renal cancer, 48 h
Bacillus subtilis = experiment: Agar well diffusion method; conditions: relative to ciprofloxacin
NCI-H460 = experiment: NCI single dose (10 µM) SRB screen; format: cell-based, human; conditions: non-small cell lung cancer, 48 h
LOX IMVI = experiment: NCI single dose (10 µM) SRB screen; format: cell-based, human; conditions: melanoma, 48 h
HOP-62 = experiment: NCI single dose (10 µM) SRB screen; format: cell-based, human; conditions: non-small cell lung cancer, 48 h
M14 = experiment: NCI single dose (10 µM) SRB screen; format: cell-based, human; conditions: melanoma, 48 h
ACHN = experiment: NCI single dose (10 µM) SRB screen; format: cell-based, human; conditions: renal cancer, 48 h
NCI 60 cancer cell lines = experiment: NCI single dose (10 µM) SRB screen, mean over panel; format: cell-based, human; conditions: mean over 60 cell lines, 48 h
SW-620 = experiment: NCI single dose (10 µM) SRB screen; format: cell-based, human; conditions: colon cancer, 48 h
CAKI-1 = experiment: NCI single dose (10 µM) SRB screen; format: cell-based, human; conditions: renal cancer, 48 h
IGROV1 = experiment: NCI single dose (10 µM) SRB screen; format: cell-based, human; conditions: ovarian cancer, 48 h
SNB-19 = experiment: NCI single dose (10 µM) SRB screen; format: cell-based, human; conditions: CNS cancer, 48 h
HL-60(TB) = experiment: NCI single dose (10 µM) SRB screen; format: cell-based, human; conditions: leukaemia, 48 h
MDA-MB-231 = experiment: NCI single dose (10 µM) SRB screen; format: cell-based, human; conditions: breast cancer, 48 h
OVCAR-3 = experiment: NCI single dose (10 µM) SRB screen; format: cell-based, human; conditions: ovarian cancer, 48 h
Escherichia coli = experiment: Agar well diffusion method; conditions: relative to ciprofloxacin
HCT-116 = experiment: NCI single dose (10 µM) SRB screen; format: cell-based, human; conditions: colon cancer, 48 h
UACC-62 = experiment: NCI single dose (10 µM) SRB screen; format: cell-based, human; conditions: melanoma, 48 h
OVCAR-4 = experiment: NCI single dose (10 µM) SRB screen; format: cell-based, human; conditions: ovarian cancer, 48 h
NCI-H23 = experiment: NCI single dose (10 µM) SRB screen; format: cell-based, human; conditions: non-small cell lung cancer, 48 h
Pseudomonas aeruginosa = experiment: Agar well diffusion method; conditions: relative to ciprofloxacin
HS578T = experiment: NCI single dose (10 µM) SRB screen; format: cell-based, human; conditions: breast cancer, 48 h
EKVX = experiment: NCI single dose (10 µM) SRB screen; format: cell-based, human; conditions: non-small cell lung cancer, 48 h
Staphylococcus aureus = experiment: Agar well diffusion method; conditions: relative to ciprofloxacin
HT29 = experiment: NCI single dose (10 µM) SRB screen; format: cell-based, human; conditions: colon cancer, 48 h
SK-MEL-28 = experiment: NCI single dose (10 µM) SRB screen; format: cell-based, human; conditions: melanoma, 48 h
MOLT-4 = experiment: NCI single dose (10 µM) SRB screen; format: cell-based, human; conditions: leukaemia, 48 h
CCRF-CEM = experiment: NCI single dose (10 µM) SRB screen; format: cell-based, human; conditions: leukaemia, 48 h
MDA-MB-435 = experiment: NCI single dose (10 µM) SRB screen; format: cell-based, human; conditions: melanoma, 48 h
SK-MEL-5 = experiment: NCI single dose (10 µM) SRB screen; format: cell-based, human; conditions: melanoma, 48 h
PC-3 = experiment: NCI single dose (10 µM) SRB screen; format: cell-based, human; conditions: prostate cancer, 48 h
NCI/ADR-RES = experiment: NCI single dose (10 µM) SRB screen; format: cell-based, human; conditions: ovarian cancer, 48 h
RXF 393 = experiment: NCI single dose (10 µM) SRB screen; format: cell-based, human; conditions: renal cancer, 48 h
NCI-H322M = experiment: NCI single dose (10 µM) SRB screen; format: cell-based; conditions: non-small cell lung cancer, 48 h
SF-539 = experiment: NCI single dose (10 µM) SRB screen; format: cell-based, human; conditions: CNS cancer, 48 h
K-562 = experiment: NCI single dose (10 µM) SRB screen; format: cell-based, human; conditions: leukaemia, 48 h
RPMI-8226 = experiment: NCI single dose (10 µM) SRB screen; format: cell-based, human; conditions: leukaemia, 48 h
MCF7 = experiment: NCI single dose (10 µM) SRB screen; format: cell-based, human; conditions: breast cancer, 48 h
BT-549 = experiment: NCI single dose (10 µM) SRB screen; format: cell-based, human; conditions: breast cancer, 48 h
Aspergillus flavus = experiment: Agar well diffusion method; conditions: relative to clotrimazole
SK-MEL-2 = experiment: NCI single dose (10 µM) SRB screen; format: cell-based, human; conditions: melanoma, 48 h
OVCAR-8 = experiment: NCI single dose (10 µM) SRB screen; format: cell-based, human; conditions: ovarian cancer, 48 h
TK-10 = experiment: NCI single dose (10 µM) SRB screen; format: cell-based, human; conditions: renal cancer, 48 h
SR = experiment: NCI single dose (10 µM) SRB screen; format: cell-based, human; conditions: leukaemia, 48 h
UACC-257 = experiment: NCI single dose (10 µM) SRB screen; format: cell-based, human; conditions: melanoma, 48 h
U251 = experiment: NCI single dose (10 µM) SRB screen; format: cell-based, human; conditions: CNS cancer, 48 h
786-0 = experiment: NCI single dose (10 µM) SRB screen; format: cell-based, human; conditions: renal cancer, 48 h
A498 = experiment: NCI single dose (10 µM) SRB screen; format: cell-based, human; conditions: renal cancer, 48 h
SF-295 = experiment: NCI single dose (10 µM) SRB screen; format: cell-based, human; conditions: CNS cancer, 48 h
COLO 205 = experiment: NCI single dose (10 µM) SRB screen; format: cell-based, human; conditions: colon cancer, 48 h
HOP-92 = experiment: NCI single dose (10 µM) SRB screen; format: cell-based, human; conditions: non-small cell lung cancer, 48 h
SN12C = experiment: NCI single dose (10 µM) SRB screen; format: cell-based, human; conditions: renal cancer, 48 h

melting point: 120 to 121 °C
SMILES: CCOC(=O)C1=C(C)NC(C)=C(C(=O)OCC(C)C)C1c1cccc(C#N)c1 (racemic) [Compound 2i, (±)-3-Ethyl 5-isobutyl 4-(3-cyanophenyl)-2,6-dimethyl-1,4-dihydropyridine-3,5-dicarboxylate]
GI% T-47D (T-47D): 32% | GI% SNB-75 (SNB-75): 18% | GI% OVCAR-5 (OVCAR-5): – (Only GI% ≥ 10 are shown) | GI% MDA-MB-468 (MDA-MB-468): 24% | GI% NCI-H226 (NCI-H226): 22% | GI% SF-268 (SF-268): – (Only GI% ≥ 10 are shown) | GI% NCI-H522 (NCI-H522): 13% | GI% DU-145 (DU-145): – (Only GI% ≥ 10 are shown) | GI% HCT-15 (HCT-15): 30% | % activity index, C. albicans (Candida albicans): – (Values below 25 are of limited value and not shown as they refer either to inactive or non-diffusing compounds) | GI% SK-OV-3 (SK-OV-3): – (Only GI% ≥ 10 are shown) | GI% MALME-3M (MALME-3M): – (Only GI% ≥ 10 are shown) | GI% KM12 (KM12): – (Only GI% ≥ 10 are shown) | GI% HCC-2998 (HCC-2998): – (Only GI% ≥ 10 are shown) | GI% A549/ATCC (A549/ATCC): 10% | GI% UO-31 (UO-31): – (Only GI% ≥ 10 are shown) | % activity index, B. subtilis (Bacillus subtilis): – (Values below 25 are of limited value and not shown as they refer either to inactive or non-diffusing compounds) | GI% NCI-H460 (NCI-H460): – (Only GI% ≥ 10 are shown) | GI% LOX IMVI (LOX IMVI): 20% | GI% HOP-62 (HOP-62): – (Only GI% ≥ 10 are shown) | GI% M14 (M14): – (Only GI% ≥ 10 are shown) | GI% ACHN (ACHN): – (Only GI% ≥ 10 are shown) | Mean GI% (NCI 60 cancer cell lines): 9% | GI% SW-620 (SW-620): – (Only GI% ≥ 10 are shown) | GI% CAKI-1 (CAKI-1): 35% | GI% IGROV1 (IGROV1): – (Only GI% ≥ 10 are shown) | GI% SNB-19 (SNB-19): – (Only GI% ≥ 10 are shown) | GI% HL-60(TB) (HL-60(TB)): – (Only GI% ≥ 10 are shown) | GI% MDA-MB-231 (MDA-MB-231): – (Only GI% ≥ 10 are shown) | GI% OVCAR-3 (OVCAR-3): – (Only GI% ≥ 10 are shown) | % activity index, E. coli (Escherichia coli): – (Values below 25 are of limited value and not shown as they refer either to inactive or non-diffusing compounds) | GI% HCT-116 (HCT-116): 23% | GI% UACC-62 (UACC-62): 27% | GI% OVCAR-4 (OVCAR-4): 12% | GI% NCI-H23 (NCI-H23): 24% | % activity index, P. aeruginosa (Pseudomonas aeruginosa): – (Values below 25 are of limited value and not shown as they refer either to inactive or non-diffusing compounds) | GI% HS578T (HS578T): 13% | GI% EKVX (EKVX): 29% | % activity index, S. aureus (Staphylococcus aureus): – (Values below 25 are of limited value and not shown as they refer either to inactive or non-diffusing compounds) | GI% HT29 (HT29): – (Only GI% ≥ 10 are shown) | GI% SK-MEL-28 (SK-MEL-28): – (Only GI% ≥ 10 are shown) | GI% MOLT-4 (MOLT-4): 21% | GI% CCRF-CEM (CCRF-CEM): – (Only GI% ≥ 10 are shown) | GI% MDA-MB-435 (MDA-MB-435): – (Only GI% ≥ 10 are shown) | GI% SK-MEL-5 (SK-MEL-5): 12% | GI% PC-3 (PC-3): 29% | GI% NCI/ADR-RES (NCI/ADR-RES): 22% | GI% RXF 393 (RXF 393): 30% | GI% NCI-H322M (NCI-H322M): – (Only GI% ≥ 10 are shown) | GI% SF-539 (SF-539): – (Only GI% ≥ 10 are shown) | GI% K-562 (K-562): 24% | GI% RPMI-8226 (RPMI-8226): – (Only GI% ≥ 10 are shown) | GI% MCF7 (MCF7): 34% | GI% BT-549 (BT-549): – (Only GI% ≥ 10 are shown) | % activity index, A. flavus (Aspergillus flavus): – (Values below 25 are of limited value and not shown as they refer either to inactive or non-diffusing compounds) | GI% SK-MEL-2 (SK-MEL-2): – (Only GI% ≥ 10 are shown) | GI% OVCAR-8 (OVCAR-8): – (Only GI% ≥ 10 are shown) | GI% TK-10 (TK-10): – (Only GI% ≥ 10 are shown) | GI% SR (SR): 23% | GI% UACC-257 (UACC-257): – (Only GI% ≥ 10 are shown) | GI% U251 (U251): – (Only GI% ≥ 10 are shown) | GI% 786-0 (786-0): 11% | GI% A498 (A498): – (Only GI% ≥ 10 are shown) | GI% SF-295 (SF-295): 31% | GI% COLO 205 (COLO 205): – (Only GI% ≥ 10 are shown) | GI% HOP-92 (HOP-92): 18% | GI% SN12C (SN12C): – (Only GI% ≥ 10 are shown)
